{"source": "patent US20240047033A1", "about": "“MULTI-OMICS METHODS FOR PRECISION MEDICINE” (UNIVERSITY OF PITTSBURGH-OF THE COMMONWEALTH SYSTEM OF …, priority 2020, published 2024)", "origin": "cited, not measured here", "test_system": "non-small cell lung cancer (NSCLC) tumors", "conditions": "pretreated chemorefractory NSCLC patients, Erlotinib monotherapy, 28 patients"}
{"smiles": "C#Cc1cccc(Nc2ncnc3cc(OCCOC)c(OCCOC)cc23)c1", "note": "[Erlotinib]", "values": [{"measurement": "time within which all treated patients progressed", "value": "six"}]}
